Source: PMC6149849, “Cymantrenyl-Nucleobases: Synthesis, Anticancer, Antitrypanosomal and Antimicrobial Activity Studies” (Molecules : A Journal of Synthetic Chemistry and Natural …, 2017)
≈ marks a conversion by molar mass, not a printed value.

Tests used:
[1] = system: S. epidermidis ATCC 12228; test: Antibacterial liquid microdilution (CLSI M07-A8); type: cell-based, Staphylococcus epidermidis
Experimental: (§1) Organometallic compounds play an increasingly important role in the search for new antibacterial agents. We, therefore, thought to investigate also the bactericidal activity of the newly synthesized cymantrenes 1–7, compound C and CymH. The antibacterial activity of the compounds was tested against Gram-positive methicillin-sensitive Staphylococcus aureus (MSSA), methicillin-resistant S. aureus (MRSA), vancomycin-intermediate S. aureus (VISA), S. epidermidis, and Gram-negative Escherichia coli bacterial strains, and expressed as minimal inhibitory concentration (MIC) values (Table 3).
(§2) The antibacterial activity of CymH, 1–7 and C and the reference drugs penicillin G and polymyxin B was tested by the liquid microdilution method under standard conditions using twofold dilution series, as described in the Clinical and Laboratory Standards Institute (CLSI), reference method M07-A8, and expressed as minimal inhibitory concentration (MIC) values. A panel of Gram-positive bacterial strains, S. aureus ATCC® 29213 (sensitive to methicillin, (MSSA)), S. aureus ATCC® 43300 (resistant to methicillin, (MRSA)), S. aureus ATCC 700787™ (intermediate to vancomycin, (VISA)), and S. epidermidis ATCC 12228™, and one Gram-negative, strain E. coli ATCC BAA-198™ (ESBL) were used. In addition, four clinical isolates of S. aureus (MSSA and MRSA) and two clinical isolates of S. epidermidis that were collected from different patients at the Medical University of Warsaw, Poland, were also tested. The bacterial cells were cultivated on tryptic soy agar (TSA) and nutrient agar (NA), according to ATCC recommendations. All of the strains were incubated at 37 °C. Tested compounds were dissolved in DMSO and then serially diluted twofold with cation-adjusted Mueller-Hinton broth (CAMHB). Then, 95 µL of the dilutions were dispensed into microdilution sterile plates (Mar-Four), followed by the addition of 5 µL of bacteria inoculum containing 5 × 10^4 CFU/mL. The final concentrations of the compounds ranged from 512 to 2 µg/mL. Each compound was tested in triplicate, and Penicillin G (8–0.15 µg/mL) and Polymyxin B (256–0.0625 µg/mL) were used as controls. The plates were incubated at 37 °C for 18 to 24 h depending on the bacterial strain. Thereafter, the absorbance was measured at λ = 540 nm and λ = 595 nm using a Spectrostar Omega microplate reader (BMG Labtech, Offenburg, Germany). The MIC value was defined as the lowest concentration of a compound that reduced the growth by 100%.

[2] = system: Clinical S. aureus (MRSA) 31/12; test: Antibacterial liquid microdilution, clinical isolate; type: cell-based, Staphylococcus aureus
Experimental: (§3) This lack of activity against E. coli can be probably explained by an impeded cellular uptake of the compounds through the Gram-negative cell wall that consists of two layers and effective protein efflux pump systems. The antibacterial activities of 1 and C were further tested against four clinical isolates of S. aureus and two clinical isolates of S. epidermidis (Table 4).
as §2

[3] = system: Clinical S. aureus (MRSA) 44/12; test: as above; type: cell-based, Staphylococcus aureus
Experimental: as §3, §2

[4] = system: Clinical S. aureus (MSSA) 26/11; test: as above; type: cell-based, Staphylococcus aureus
Experimental: as §3, §2

[5] = system: Clinical S. aureus (MSSA) 30/11; test: as above; type: cell-based, Staphylococcus aureus
Experimental: as §3, §2

[6] = system: E. coli ATCC BAA-198 (ESBL); test: Antibacterial liquid microdilution (CLSI M07-A8); type: cell-based, Escherichia coli
Experimental: as §1, §2

[7] = system: Clinical S. epidermidis (MSSA) 37/12; test: Antibacterial liquid microdilution, clinical isolate; type: cell-based, Staphylococcus epidermidis
Experimental: as §3, §2

[8] = system: Clinical S. epidermidis (MSSA) 43/12; test: as above; type: cell-based, Staphylococcus epidermidis
Experimental: as §3, §2

[9] = system: S. aureus ATCC 700787 (VISA); test: Antibacterial liquid microdilution (CLSI M07-A8); type: cell-based, Staphylococcus aureus; details: 18 to 24 h
Experimental: as §1, §2

[10] = system: S. aureus ATCC 29213 (MSSA); test: Antibacterial liquid microdilution (CLSI M07-A8); type: cell-based, Staphylococcus aureus; details: 18 to 24 h
Experimental: as §1, §2

[11] = system: S. aureus ATCC 43300 (MRSA); test: Antibacterial liquid microdilution (CLSI M07-A8); type: cell-based, Staphylococcus aureus; details: 18 to 24 h
Experimental: as §1, §2

in vitro = details: human
Experimental: (§4) All of the cultures were maintained at 37 °C in a humidified atmosphere containing 5% of CO2. Toxicity assays were performed, as previously described, with some modifications. In brief, trypanosomes and HL-60 cells were seeded at an initial cell density of 10^4/mL and 5 × 10^4/mL, respectively, in 96-well plates in a final volume of 200 μL culture medium containing various concentrations of test compounds dissolved in 100% DMSO. […] The controls contained DMSO alone. In all of the experiments, the final DMSO concentration was 0.9%. After 24 h incubation, 20 µL of a 0.5 mM resazurin solution prepared in PBS was added and the cultures were incubated for a further 48 h. Resazurin is a vital dye that, when being reduced by living cells, changes its colour from blue to pink. Thus, by measuring absorbance, the proliferation of cells can be easily determined. The change in absorbance was read with a microplate reader using a test wavelength of 570 nm and a reference wavelength of 630 nm. GI50 values were calculated by linear interpolation according to the method described by Huber and Koella. MIC values were determined microscopically.

[12] = system: human myeloid leukemia HL-60 cells; test: in vitro; details: human, 72 h
Experimental: as §4

[13] = system: bloodstream forms of T. brucei clone 427-221a; test: Trypanocidal assay, resazurin viability assay; type: cell-based, Trypanosoma brucei
Experimental: as §4

Work on `CC1(C)S[C@@H]2[C@H](NC(=O)Cc3ccccc3)C(=O)N2[C@H]1C(=O)O` [penicillin G, reference compound] yielded an MIC ([1]; Staphylococcus epidermidis, ATCC12228, 18 to 24 h) of 2 µg/mL (≈ 5.98 µM), an MIC ([2]; Staphylococcus aureus, MRSA) of 32 µg/mL (≈ 95.7 µM) and an MIC ([3]; Staphylococcus aureus, MRSA) of 8 µg/mL (≈ 23.9 µM). For the same compound, the MIC ([4]; Staphylococcus aureus, MSSA) was 0.5 µg/mL (≈ 1.5 µM), the MIC ([5]; Staphylococcus aureus, MSSA) was 2 µg/mL (≈ 5.98 µM) and the MIC ([6]; Escherichia coli, ATCCBAA198, 18 to 24 h) was over 256 µg/mL. The MIC ([7]; Staphylococcus epidermidis, MSSA, read-out: MIC, Clinical S. epidermidis 37/12) was 16 µg/mL (≈ 47.8 µM), the MIC ([8]; Staphylococcus epidermidis, MSSA) was 8 µg/mL (≈ 23.9 µM) and the MIC ([9]; Staphylococcus aureus) was 32 µg/mL (≈ 95.7 µM). It also gave an MIC ([10]; Staphylococcus aureus) of 2 µg/mL (≈ 5.98 µM) and an MIC ([11]; Staphylococcus aureus) of 16 µg/mL (≈ 47.8 µM).
With `Cc1ccc(C(=O)Nc2ccc(S(=O)(=O)O)c3cc(S(=O)(=O)O)cc(S(=O)(=O)O)c23)cc1NC(=O)c1cccc(NC(=O)Nc2cccc(C(=O)Nc3cc(C(=O)Nc4ccc(S(=O)(=O)O)c5cc(S(=O)(=O)O)cc(S(=O)(=O)O)c45)ccc3C)c2)c1` [Suramin, suramin, reference compound] the GI50 at 72 h (in vitro) was over 100000 nM, the “HL-60 MIC” value [12] was over 100 µM and the GI50 ([13]; Trypanosoma brucei, 50% growth inhibition) was 39 ± 3 nM. For the same compound, the MIC ([13]; Trypanosoma brucei, concentration at which all cells were killed, determined microscopically) was 0.1 to 1 µM (≈ 0.13 to 1.3 µg/mL) and the “Selectivity GI50 Ratio” value ([13]; ratio of cytotoxic (HL-60) to trypanocidal (T. brucei) activity) was over 2564.
With polymyxin B [reference compound] the “MIC, S. epidermidis ATCC 12228” value ([1]; 18 to 24 h) was 64 µg/mL, the “MIC, Clinical S. aureus (MRSA) 31/12” value [2] was 256 µg/mL and the “MIC, Clinical S. aureus (MRSA) 44/12” value [3] was 256 µg/mL. The “MIC, Clinical S. aureus (MSSA) 26/11” value [4] was 256 µg/mL, the “MIC, Clinical S. aureus (MSSA) 30/11” value [5] was 256 µg/mL and the “MIC, E. coli ATCC BAA-198” value ([6]; 18 to 24 h) was 0.125 µg/mL. The “MIC, Clinical S. epidermidis (MSSA) 37/12” value [7] was 128 µg/mL, the “MIC, Clinical S. epidermidis (MSSA) 43/12” value [8] was 64 µg/mL and the “MIC, S. aureus ATCC 700787 (VISA)” value [9] was over 256 µg/mL. For the same compound, the “MIC, S. aureus ATCC 29213 (MSSA)” value [10] was 256 µg/mL and the “MIC, S. aureus ATCC 43300 (MRSA)” value [11] was 256 µg/mL.
